Test results from patent publication US20260355196A1, “INHIBITORS AND DEGRADERS OF PIP4K PROTEIN” (Larkspur Biosciences, Inc., priority 2023, published 2026).

Target: T1, PIP4K2C (Homo sapiens, UniProt Q8TBX8)
T1 sequence (Q8TBX8 1-421): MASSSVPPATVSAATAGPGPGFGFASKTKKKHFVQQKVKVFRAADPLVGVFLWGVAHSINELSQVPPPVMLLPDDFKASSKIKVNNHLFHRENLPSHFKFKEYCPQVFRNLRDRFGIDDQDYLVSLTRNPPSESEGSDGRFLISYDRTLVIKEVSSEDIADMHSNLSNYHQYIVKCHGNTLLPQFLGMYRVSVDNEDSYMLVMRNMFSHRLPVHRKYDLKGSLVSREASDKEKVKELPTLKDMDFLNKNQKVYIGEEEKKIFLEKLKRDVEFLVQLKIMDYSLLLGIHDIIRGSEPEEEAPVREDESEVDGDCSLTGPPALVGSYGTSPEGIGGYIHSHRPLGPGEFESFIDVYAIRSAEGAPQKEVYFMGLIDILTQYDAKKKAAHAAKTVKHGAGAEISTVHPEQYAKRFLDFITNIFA
Experiment: HiBiT PIP4K2C degradation assay in MOLT-4 cells (endogenous PIP4K2C C-terminally tagged with HiBiT)
Assay type: cell-based
Parameters: untagged in primary human PBMCs and monocyte-derived dendritic cells
Conditions: 24 hours incubation, MOLT-4, top concentration 10 micromolar; read-out: HiBIT-degradation MOLT4 PIP4k2C 24 hours DC50
How it was run: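 Cells are plated onto compound dilutions (10 points, 3-fold, top 10 micromolar) and incubated 24 or 6 hours at 37 C. Lytic HiBiT detection then quantifies tagged endogenous PIP4K2C in MOLT-4, and a Hill fit yields DC50.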

SMILES	DC50 [nM]
O=C1CCC(n2c(=O)oc3cc(N4CCC(CN5CCN(CC(=O)N[C@H]6CC[C@H](Nc7ncc(F)c(-c8cccc(-n9ccccc9=O)c8)n7)CC6)CC5)CC4)ccc32)C(=O)N1 (stereo partly drawn) [Compound 360, 2-(4-((1-(3-(2,6-dioxopiperidin-3-yl)-2-oxo-2,3-dihydrobenzo[d]oxazol-6-yl)piperidin-4-yl)methyl)piperazin-1-yl)-N-(trans-4-((5-fluoro-4-(3-(2-oxopyridin-1(2H)-yl)phenyl)pyrimidin-2-yl)amino)cyclohexyl)acetamide]	< 500
O=C1CCC(n2c(=O)oc3cc(C4CCN(CC5CCN(CC(=O)N[C@H]6CC[C@H](Nc7ncc(F)c(-c8cccc(N9CCCOC9=O)c8)n7)CC6)CC5)CC4)ccc32)C(=O)N1 (stereo partly drawn) [Compound 362, trans-2-(4-((4-(3-(2,6-dioxopiperidin-3-yl)-2-oxo-2,3-dihydrobenzo[d]oxazol-6-yl)piperidin-1-yl)methyl)piperidin-1-yl)-N-(4-((5-fluoro-4-(3-(2-oxo-1,3-oxazinan-3-yl)phenyl)pyrimidin-2-yl)amino)cyclohexyl)acetamide]	< 500
O=C1CCC(n2c(=O)oc3cc(C4CCN(CC5CCN(CC(=O)N[C@H]6CC[C@H](Nc7ncc(F)c(-c8cccc(N9CCOC9=O)c8)n7)CC6)CC5)CC4)ccc32)C(=O)N1 (stereo partly drawn) [Compound 363, trans-2-[4-[[4-[3-(2,6-dioxo-3-piperidyl)-2-oxo-1,3-benzoxazol-6-yl]-1-piperidyl]methyl]-1-piperidyl]-N-[4-[[5-fluoro-4-[3-(2-oxooxazolidin-3-yl)phenyl]pyrimidin-2-yl]amino]cyclohexyl]acetamide]	< 500
O=C1CCC(Nc2ccc(C3CCN(CC4CCN(CC(=O)N5CCC(Nc6ncc(F)c(-c7cccc(-c8ccc[nH]c8=O)c7)n6)CC5)CC4)CC3)c(F)c2)C(=O)N1 (centres unmarked) [Compound 364, 3-((3-fluoro-4-(1-((1-(2-(4-((5-fluoro-4-(3-(2-oxo-1,2-dihydropyridin-3-yl)phenyl)pyrimidin-2-yl)amino)piperidin-1-yl)-2-oxoethyl)piperidin-4-yl)methyl)piperidin-4-yl)phenyl)amino)piperidine-2,6-dione]	< 500
O=C1CCC(Nc2ccc(C3CCN(CC4CCN(CC(=O)N[C@H]5CC[C@H](Nc6ncc(F)c(-c7cccc(-c8ccc[nH]c8=O)c7)n6)CC5)CC4)CC3)c(F)c2)C(=O)N1 (stereo partly drawn) [Compound 365, trans-2-(4-((4-(4-((2,6-dioxopiperidin-3-yl)amino)-2-fluorophenyl)piperidin-1-yl)methyl)piperidin-1-yl)-N-(4-((5-fluoro-4-(3-(2-oxo-1,2-dihydropyridin-3-yl)phenyl)pyrimidin-2-yl)amino)cyclohexyl)acetamide]	< 500
O=C1CCC(n2c(=O)oc3cc(C4CCN(CC5CCN(C(=O)CN6CCC(Nc7ncc(F)c(-c8cccc(-c9ccccc9)c8)n7)CC6=O)CC5)CC4)ccc32)C(=O)N1 (centres unmarked) [Compound 366, 3-(6-(1-((1-(2-(4-((4-([1,1′-biphenyl]-3-yl)-5-fluoropyrimidin-2-yl)amino)-2-oxopiperidin-1-yl)acetyl)piperidin-4-yl)methyl)piperidin-4-yl)-2-oxobenzo[d]oxazol-3 (2H)-yl)piperidine-2,6-dione]	< 500
O=C1CCC(n2c(=O)oc3cc(C4CCN(CC5CCN(C(=O)CN6CCC(Nc7ncc(F)c(-c8cccc(-n9ccccc9=O)c8)n7)CC6=O)CC5)CC4)ccc32)C(=O)N1 (centres unmarked) [Compound 367, 3-(6-(1-((1-(2-(4-((5-fluoro-4-(3-(2-oxopyridin-1(2H)-yl)phenyl)pyrimidin-2-yl)amino)-2-oxopiperidin-1-yl)acetyl)piperidin-4-yl)methyl)piperidin-4-yl)-2-oxobenzo[d]oxazol-3 (2H)-yl)piperidine-2,6-dione]	< 500
O=C1CCC(n2c(=O)oc3cc(C4CCN(CCC5CCN(C(=O)[C@H]6CC[C@H](Nc7ncc(F)c(-c8cccc(-c9ccc[nH]c9=O)c8)n7)CC6)CC5)CC4)ccc32)C(=O)N1 (stereo partly drawn) [Compound 368, 3-(6-(1-(2-(1-(trans-4-((5-fluoro-4-(3-(2-oxo-1,2-dihydropyridin-3-yl)phenyl)pyrimidin-2-yl)amino)cyclohexane-1-carbonyl)piperidin-4-yl)ethyl)piperidin-4-yl)-2-oxobenzo[d]oxazol-3 (2H)-yl)piperidine-2,6-dione]	< 500
O=C1CCC(n2c(=O)oc3cc(C4CCN(CC5CCN(CC(=O)N[C@H]6CC[C@H](Nc7ncc(Cl)c(-c8cccc(-n9ccccc9=O)c8)n7)CC6)CC5)CC4)ccc32)C(=O)N1 (stereo partly drawn) [Compound 369, trans-N-(4-((5-chloro-4-(3-(2-oxopyridin-1(2H)-yl)phenyl)pyrimidin-2-yl)amino)cyclohexyl)-2-(4-((4-(3-(2,6-dioxopiperidin-3-yl)-2-oxo-2,3-dihydrobenzo[d]oxazol-6-yl)piperidin-1-yl)methyl)piperidin-1-yl)acetamide]	< 500
CC(C(=O)N1CCC(Nc2ncc(F)c(-c3cccc(-n4ccccc4=O)c3)n2)CC1)N1CCC(CN2CCC(c3ccc4c(c3)oc(=O)n4C3CCC(=O)NC3=O)CC2)CC1 (centres unmarked) [Compound 370, 3-(6-(1-((1-(1-(4-((5-fluoro-4-(3-(2-oxopyridin-1(2H)-yl)phenyl)pyrimidin-2-yl)amino)piperidin-1-yl)-1-oxopropan-2-yl)piperidin-4-yl)methyl)piperidin-4-yl)-2-oxobenzo[d]oxazol-3 (2H)-yl)piperidine-2,6-dione]	< 500
O=C1CCC(n2c(=O)oc3cc(C4CCN(CC5CCN(CC(=O)N6CCC(Nc7ncc(F)c(-c8cccc(N9CCCOC9=O)c8)n7)CC6)CC5)CC4)ccc32)C(=O)N1 (centres unmarked) [Compound 371, 3-(6-(1-((1-(2-(4-((5-fluoro-4-(3-(2-oxo-1,3-oxazinan-3-yl)phenyl)pyrimidin-2-yl)amino)piperidin-1-yl)-2-oxoethyl)piperidin-4-yl)methyl)piperidin-4-yl)-2-oxobenzo[d]oxazol-3 (2H)-yl)piperidine-2,6-dione]	< 500
O=C1CCC(n2c(=O)oc3cc(C4CCN(CC5CCN(CC(=O)N6CCC(Nc7ncc(F)c(-c8cccc(N9CCOC9=O)c8)n7)CC6)CC5)CC4)ccc32)C(=O)N1 (centres unmarked) [Compound 372, 3-(6-(1-((1-(2-(4-((5-fluoro-4-(3-(2-oxooxazolidin-3-yl)phenyl)pyrimidin-2-yl)amino)piperidin-1-yl)-2-oxoethyl)piperidin-4-yl)methyl)piperidin-4-yl)-2-oxobenzo[d]oxazol-3 (2H)-yl)piperidine-2,6-dione]	< 500
O=C1CCC(n2c(=O)oc3cc(C4CCN(CC5CCN(CC(=O)N6CCC(Nc7ncc(Cl)c(-c8cccc(-n9ccccc9=O)c8)n7)CC6)CC5)CC4)ccc32)C(=O)N1 (centres unmarked) [Compound 373, 3-(6-(1-((1-(2-(4-((5-chloro-4-(3-(2-oxopyridin-1(2H)-yl)phenyl)pyrimidin-2-yl)amino)piperidin-1-yl)-2-oxoethyl)piperidin-4-yl)methyl)piperidin-4-yl)-2-oxobenzo[d]oxazol-3 (2H)-yl)piperidine-2,6-dione]	> 5000
O=C1CCC(Nc2ccc(N3CCN(CC4CCN(C(=O)[C@H]5CC[C@H](Nc6ncc(F)c(-c7cccc(-n8ccccc8=O)c7)n6)CC5)CC4)CC3)c(F)c2)C(=O)N1 (stereo partly drawn) [Compound 374, trans-3-((3-fluoro-4-(4-((1-(4-((5-fluoro-4-(3-(2-oxopyridin-1(2H)-yl)phenyl)pyrimidin-2-yl)amino)cyclohexane-1-carbonyl)piperidin-4-yl)methyl)piperazin-1-yl)phenyl)amino)piperidine-2,6-dione]	< 500
O=C1CCC(Nc2ccc(N3CCN(CC4CCN(C(=O)[C@H]5CC[C@H](Nc6ncc(F)c(-c7cccc(-c8ccc[nH]c8=O)c7)n6)CC5)CC4)CC3)c(F)c2)C(=O)N1 (stereo partly drawn) [Compound 376, trans-3-((3-fluoro-4-(4-((1-(4-((5-fluoro-4-(3-(2-oxo-1,2-dihydropyridin-3-yl)phenyl)pyrimidin-2-yl)amino)cyclohexane-1-carbonyl)piperidin-4-yl)methyl)piperazin-1-yl)phenyl)amino)piperidine-2,6-dione]	< 500
O=C1CCC(Nc2ccc(N3CCC(N4CC5(CC(OC(=O)N[C@H]6CC[C@H](Nc7ncc(F)c(-c8cccc(-n9ccccc9=O)c8)n7)CC6)C5)C4)CC3)c(F)c2)C(=O)N1 (stereo partly drawn) [Compound 377, trans-2-(1-(4-((2,6-dioxopiperidin-3-yl)amino)-2-fluorophenyl)piperidin-4-yl)-2-azaspiro[3.3]heptan-6-yl (4-((5-fluoro-4-(3-(2-oxopyridin-1(2H)-yl)phenyl)pyrimidin-2-yl)amino)cyclohexyl)carbamate]	< 500

Same assay, conditions: read-out: HiBIT-degradation MOLT4 PIP4k2C 24 hours DC50; 24 hours incubation, MOLT-4, top concentration 10 micromolar

SMILES	DC50 [nM]
O=C1CCC(n2c(=O)oc3cc(C4CCN(CC5CCN(CC(=O)N[C@H]6CC[C@H](Nc7ncc(F)c(C8CCCN(C(=O)C9CC9)C8)n7)CC6)CC5)CC4)ccc32)C(=O)N1 (stereo partly drawn) [Compound 359, trans-N-(4-((4-(1-(cyclopropanecarbonyl)piperidin-3-yl)-5-fluoropyrimidin-2-yl)amino)cyclohexyl)-2-(4-((4-(3-(2,6-dioxopiperidin-3-yl)-2-oxo-2,3-dihydrobenzo[d]oxazol-6-yl)piperidin-1-yl)methyl)piperidin-1-yl)acetamide]	< 500
